Experimental findings from patent US20240287042A1, “NOVEL COMPOUND HAVING INHIBITORY ACTIVITY AGAINST PENDRIN, AND PHARMACEUTICAL USES THEREOF” (UIF (University Industry Foundation), Yonsei University, priority 2021, published 2024) are described below.

Assay [1] concerns the target T1, human wild-type (WT)-pendrin (Homo sapiens, UniProt O43511).
T1 construct: expressed in transfected cells
T1 sequence (O43511 1-780): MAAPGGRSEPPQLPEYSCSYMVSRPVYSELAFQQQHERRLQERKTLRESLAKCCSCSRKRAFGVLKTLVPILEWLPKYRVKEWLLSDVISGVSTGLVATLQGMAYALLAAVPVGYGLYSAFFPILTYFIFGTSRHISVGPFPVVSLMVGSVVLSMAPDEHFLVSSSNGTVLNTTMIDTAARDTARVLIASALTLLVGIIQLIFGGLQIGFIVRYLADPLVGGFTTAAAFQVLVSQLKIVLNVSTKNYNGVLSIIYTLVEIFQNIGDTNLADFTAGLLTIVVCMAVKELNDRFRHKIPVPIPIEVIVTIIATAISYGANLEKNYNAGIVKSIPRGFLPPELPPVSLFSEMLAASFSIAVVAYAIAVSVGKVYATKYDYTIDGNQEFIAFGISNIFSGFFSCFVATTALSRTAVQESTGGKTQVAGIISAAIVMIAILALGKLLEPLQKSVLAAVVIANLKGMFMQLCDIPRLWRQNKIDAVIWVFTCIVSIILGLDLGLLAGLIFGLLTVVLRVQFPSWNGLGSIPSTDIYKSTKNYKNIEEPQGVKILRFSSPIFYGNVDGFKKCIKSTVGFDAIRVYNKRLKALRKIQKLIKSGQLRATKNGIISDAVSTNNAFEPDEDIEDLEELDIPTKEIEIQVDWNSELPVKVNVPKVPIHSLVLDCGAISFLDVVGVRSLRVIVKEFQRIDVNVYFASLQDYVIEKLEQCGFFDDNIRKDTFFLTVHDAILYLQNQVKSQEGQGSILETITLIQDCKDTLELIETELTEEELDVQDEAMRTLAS
Description: Pendrin Cl−/I− exchange inhibitory activity, YFP fluorescence in CHO-K1 cells. The settings on record: for pIC50: CHO-K1-YFP cells, read-out: IC50 of pendrin-induced Cl−/I− anion exchange; for pIC50 / Inhibition of pendrin-induced Cl−/I− anion exchange: FIG. 1; for inhibition at 1 µM / inhibition at 3 µM / inhibition at 10 µM / inhibition at 30 µM / inhibition at 100 µM: CHO-K1; for inhibition at 1 µM: compound concentration 1 μM; for inhibition at 3 µM: compound concentration 3 μM; for inhibition at 10 µM: compound concentration 10 μM; for inhibition at 30 µM: compound concentration 30 μM; for inhibition at 100 µM: compound concentration 100 μM. The format is cell-based. In short, it runs like this: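 CHO-K1 cells stably co-expressing human WT pendrin and YFP-F46L/H148Q/I152L were preincubated with compound (1–100 µM, or 50 µM single dose) for 10 min at 37°C in HEPES buffer, pH 7.4. NaI solution was then injected and YFP quenching was recorded; the initial iodide influx rate came from the initial fluorescence slope.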

The target in the next assay is T2, SLC26A6 (Homo sapiens, UniProt Q9BXS9).
T2 construct: expressed in transfected cells
T2 sequence (Q9BXS9 1-759): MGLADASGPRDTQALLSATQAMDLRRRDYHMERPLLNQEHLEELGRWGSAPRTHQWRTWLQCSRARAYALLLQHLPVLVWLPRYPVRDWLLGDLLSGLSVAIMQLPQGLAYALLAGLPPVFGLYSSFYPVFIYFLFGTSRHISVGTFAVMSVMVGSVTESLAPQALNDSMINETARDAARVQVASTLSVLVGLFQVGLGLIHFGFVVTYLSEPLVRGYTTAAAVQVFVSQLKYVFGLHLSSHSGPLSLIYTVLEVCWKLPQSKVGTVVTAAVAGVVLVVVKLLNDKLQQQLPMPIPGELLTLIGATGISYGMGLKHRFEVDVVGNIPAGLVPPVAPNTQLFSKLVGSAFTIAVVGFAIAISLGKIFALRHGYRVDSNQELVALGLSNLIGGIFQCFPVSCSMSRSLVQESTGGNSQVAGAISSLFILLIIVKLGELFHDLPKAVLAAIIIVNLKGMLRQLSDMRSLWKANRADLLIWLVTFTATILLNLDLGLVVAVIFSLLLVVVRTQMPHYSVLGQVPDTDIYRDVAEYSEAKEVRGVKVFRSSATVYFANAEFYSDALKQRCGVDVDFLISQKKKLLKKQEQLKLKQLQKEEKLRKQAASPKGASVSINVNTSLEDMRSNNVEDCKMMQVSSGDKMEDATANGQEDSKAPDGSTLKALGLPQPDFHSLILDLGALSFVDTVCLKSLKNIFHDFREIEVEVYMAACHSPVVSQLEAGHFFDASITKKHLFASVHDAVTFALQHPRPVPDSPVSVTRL
The assay is described as follows: SLC26A6 activity, YFP fluorescence in LN-215 cells. The format is cell-based. The settings on record: FIG. 16. How it is done:
In the case of SLC26A3 and SLC26A6, each transporter protein and halide sensitive YFP were expressed in LN-215 cells to measure the activity of the transporter protein.
Other details were carried out in the same manner as Example 5.

SMILES strings stand for the structures. pIC50: −log10 of the molar value.

As for `Cc1ccc2[nH]c(C(=O)O)c(CC(=O)N3CCN(c4c(C)cccc4Cl)CC3)c2c1` [YPI-A4948, 3-(2-(4-(2-Chloro-6-methylphenyl)piperazin-1-yl)-2-oxoethyl)-5-methyl-1H-indole-2-carboxylic acid], in assay [1], the pIC50 was 6.24; at 1 µM the inhibition was 70.5%; testing at 3 µM gave an inhibition of 93.6%; the inhibition (as a rule, how much of the control response was suppressed) at 10 µM was 100%. In addition, in assay [1], the inhibition at 30 µM was found to be 100%, at 100 µM the inhibition was 100% and the “Inhibition of pendrin-induced Cl−/I− anion exchange” value is on record as “in a concentration-dependent manner”. Also, the “Efficacy on pendrin relative to YPI-H05” value in assay [1] (ratio of IC50 values) is given as “approximately 5 times”. In addition, the “Effect on activity of SLC26A6” value on SLC26A6 was “did not inhibit”.

Regarding `Cc1ccc(C)c(N2CCN(C(=O)Cc3c(C(=O)O)[nH]c4ccc(Cl)cc34)CC2)c1` [YPI-H05, 5-chloro-3-(2-(4-(2,5-dimethylphenyl)piperazin-1-yl-)-2-oxoethyl)-1H-indole-2-carboxylic acid], in assay [1], the pIC50 was 5.57, the inhibition at 1 µM is less than 20%, the inhibition at 3 µM was 24.6% and at 10 µM the inhibition was 67.9%. Besides, in assay [1], the inhibition at 30 µM turned out to be 95.4%, testing at 100 µM gave an inhibition of 96.5% and the “Inhibition of pendrin-induced Cl−/I− anion exchange” value is recorded as “in a concentration-dependent manner”.
